System: S6-M19-SAM sensor (RNA, riboswitch) GGGAGAUAGAGCAUCCGAUAACUUCGGUUAUUGGAUGGAUCAGACUCCUUCGGGAGUUUGAUCGGGCCUGAAGCCUCCACGGGCCCCUCUGUCUCCCACAGCUUGGACGAGCUGAAGGAGGCACGGCUCCCCAUCAAGGACGGGUCCAAUGGUCCGCUUCGGCGGAUCAUUGUUGAGUAGAGUGUGAGGAUGGGCCGGGGGAACUUCGGUUCCCGAAAGGACCGGUCGAAGGGACGGUGCGGAGAGGAGAGACUGGGAUGCCUUGUAACCGGGUCUAAGUUGU
Test: FRET dose-response (Spinach/DFHBI-1T to Mango/YO3-biotin)
Settings: 125 mM KCl, 1 mM MgCl2; assembly buffer; 50 nM RNA, 1 µM DFHBI-1T, 1.7 µM YO3-biotin; SAM 1 µM to 2.5 mM; apparent

EC50: 17 µM
SMILES: C[S+](CC[C@H](N)C(=O)O)C[C@H]1O[C@@H](n2cnc3c(N)ncnc32)[C@H](O)[C@@H]1O (stereo partly shown)
